In general, pEC50 refers to −log10 of the EC50, conventionally taken in molar units. As a reminder, the pIC50 is the IC50 on a negative log10 scale, so that one unit is a factor of ten.

pEC50, pIC50: −log10 of the molar value.

We go through eleven molecules from US20100029710A1, “COMPOUNDS HAVING BOTH ANGIOTENSIN II RECEPTOR ANTAGONISM AND PPARy ACTIVATING ACTIVITIES” (Pfizer Products Inc., priority 2006, published 2010).

Assay [1] has as its system Spontaneously hypertensive rats (SHR). The assay can be described thus: Blood pressure reduction in vivo assay (radiotelemetry). As to conditions: SHR rat, single dose 10 mg/kg p.o. The protocol:
The rats are surgically implanted with radio-telemetry transmitters to allow capture of conscious, unrestrained systolic and diastolic BP as well as heart rate.
In vivo studies were conducted to show the effectiveness of a compound in reducing blood pressure due to its angiotensin II receptor antagonist activity, and its ability to induce insulin sensitization in a diabetic rat due to its PPARγ agonist activity.
Spontaneously hypertensive rats (SHR) were implanted with radiotelemetry devices capable of measuring blood pressure (BP) via an aortic cannula and transmitting the data to a receiving pad under the cage. Animals were conscious and had access to food and water ad libitum while blood pressure was monitored continuously. Rats were dosed with vehicle and monitored for 24 hours to establish baseline before administering compound and measuring changes in blood pressure for another 24 hours. Changes in blood pressure were calculated over time and compared to vehicle controls.

Assay [2] addresses T1, human PPARγ LBD bound to Gal4 DBD (Homo sapiens, UniProt P37231).
T1 construct: expressed in transfected cells; host or cells: HepG2
T1 sequence (P37231 238-503 limits assumed): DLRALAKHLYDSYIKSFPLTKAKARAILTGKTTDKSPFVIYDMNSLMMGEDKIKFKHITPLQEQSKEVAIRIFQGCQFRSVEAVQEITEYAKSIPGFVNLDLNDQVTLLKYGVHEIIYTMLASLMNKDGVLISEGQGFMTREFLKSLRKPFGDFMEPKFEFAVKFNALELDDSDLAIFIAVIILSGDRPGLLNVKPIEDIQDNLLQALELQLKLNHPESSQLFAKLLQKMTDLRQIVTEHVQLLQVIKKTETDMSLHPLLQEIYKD
The assay can be described thus: PPARγ transfection luciferase reporter assay in HepG2 cells. As to conditions: for Emax: HepG2, 24 h, compared to full agonist response (standard TZD full agonist), read-out: PPARγ % activation; for pEC50: HepG2, 24 hours exposure. The format is cell-based. The essentials:
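HepG2 cells transiently co-transfected with Gal4 DBD–PPARγ LBD, luciferase reporter and β-galactosidase, then exposed 24 h to compound (0.1 nM–100 μM). Luciferase/β-gal ratio gives activation. EC50 is relative to each compound's own maximum; efficacy is % of a reference TZD full agonist.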
In general terms: Reporter assays use an easily measured gene product as a stand-in for the process of interest.

The test system of another assay is ZDF male rat. The assay can be described thus: Glucose lowering in vivo assay. To be noted: 10 mg/kg p.o. once daily for 28 days; for Difference from Vehicle Control: blood glucose. The text has this: Homozygous expression of this mutation leads to a phenotype of hyperphagia, obesity, insulin resistance, hyperglycemia, and hypertriglyceridemia resulting in uncontrolled diabetes, β-cell failure, severe nephropathy, and proteinuria by 16 weeks of age.
The hypoglycemic activity of the compounds of this invention can be determined by the amount of test compound that delays or suppresses elevations in glucose levels relative to a vehicle without test compound in male ZDF rats.
Male Zucker Diabetic Fatty (ZDF/Crl-Lepr^fa) rats were obtained from Charles River Laboratories (Wilmington, Mass.). Rats were pair housed under a 12-h light/dark cycle with free access to water and Purina 5008 rat chow (Protein 26.8%, fat 16.7%, carbohydrates 56.5% kcal/vol; Purina Mills, Richmond, Ind.). Prior to the onset of diabetic hyperglycemia (fed blood glucose<200 mg/dl) rats were randomly allocated to groups based on HOMA values. The Homeostasis Model Assessment (HOMA) calculation estimates peripheral insulin resistance from corresponding insulin and glucose measurements. Rats were administered a once daily oral dose for 28 days with suspensions of vehicle alone (1.5% carboxymethyl-cellulose plus 0.2% Tween 20), vehicle plus test compound in the range 0.1-100 mg/kg. At the end of the study, an oral glucose tolerance test (OGTT, 2 g/kg dextrose) was conducted to measure glucose excursion. Tail venipuncture in conscious, 1 hr fasted animals at baseline and weekly thereafter, provided sample for blood glucose, serum insulin, triglycerides, cholesterol, and FFA measurements. Glucose levels were determined with a HemoCue Glucose Monitor (Ryan Diagnostics), insulin was determined by ELISA (Alpco), and lipids were determined by Cobas Mira Analyzer (Roche) and by enzymatic assays (Wako). Lipoprotein cholesterol was determined by FPLC following the method of Kieft et al. (Kieft K A, Bocan T M, Krause B R. Rapid on-line determination of cholesterol distribution among plasma lipoproteins after high-performance gel filtration chromatography. J Lipid Res 1991; 32(5): 859-66). Briefly, plasma was separated on a Superose 6HR 10/30 column (Pharmacia) and cholesterol was then measured in-line utilizing a post-column enzymatic cholesterol assay (Roche). Percent of total area for each lipoprotein fraction were calculated. These percent areas were then multiplied by the total plasma cholesterol concentration, yielding the cholesterol concentration in each fraction. Efficacy was determined by comparison to untreated vehicle controls and reference agents and active compounds selected for further evaluation.

Assay [3] has as its target T2, Human recombinant AT1 receptor (Homo sapiens, UniProt P30556).
T2 construct: purchased
T2 sequence (P30556 1-359): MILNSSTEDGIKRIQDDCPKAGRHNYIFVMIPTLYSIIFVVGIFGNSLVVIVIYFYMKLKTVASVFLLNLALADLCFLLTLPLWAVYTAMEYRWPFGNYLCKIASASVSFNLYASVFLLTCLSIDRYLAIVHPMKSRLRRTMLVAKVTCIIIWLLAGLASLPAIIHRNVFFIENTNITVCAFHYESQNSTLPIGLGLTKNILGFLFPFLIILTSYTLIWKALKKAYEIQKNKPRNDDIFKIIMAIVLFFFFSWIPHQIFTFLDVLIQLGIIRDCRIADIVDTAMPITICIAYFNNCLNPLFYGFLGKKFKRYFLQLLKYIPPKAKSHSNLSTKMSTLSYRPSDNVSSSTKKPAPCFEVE
The assay can be described thus: AT1 receptor radioligand binding (flashplate). As to conditions: 125I Sar1,Ile8-Angiotensin II radioligand. The essentials:
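Human recombinant AT1 receptor was coated on flashplates and competed against 125I-Sar1,Ile8-angiotensin II at its Kd concentration for 2 h at room temperature. Compounds were tested from […], with nonspecific binding defined by 10 μM angiotensin II. Ki was derived via Cheng-Prusoff.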

Turning to `CCc1nc2c(C)cc([C@@H](O)C(C)C)nc2n1[C@H]1CCc2cc(-c3ccccc3-c3nnn[nH]3)ccc21` [Example 10, (S)-1-(3-((1S)-5-(2-(1H-tetrazol-5-yl)phenyl)-2,3-dihydro-1H-inden-1-yl)-2-ethyl-7-methyl-3H-imidazo[4,5-b]pyridin-5-yl)-2-methylpropan-1-ol], in assay [1], the Duration of activity is given as greater than 20 h and the “Maximal fall in Mean Blood Pressure after single dose of 10 mg/kg p.o. (mmHg)” value (from here on “Maximal fall … of 10 mg/kg p.o. (mmHg)”) is reported as −27 mmHg. Moreover, in assay [2], the Emax stood at 27% and the pEC50 is 6.84. Further, in the assay with ZDF male rat, the “Blood Glucose (1 h Fast) after single daily dose of 10 mg/kg p.o. for 28 days” value (“Blood Glucose … of 10 mg/kg p.o. for 28 days” for short) worked out at 239 mg/dL and the “Difference from Vehicle Control” value was -133 mg/dL. Moreover, the pIC50 in assay [3] is 8.80.
Regarding `CCc1nc2c(C)cc(CCOC)nc2n1[C@H]1CCc2cc(-c3ccccc3-c3nnn[nH]3)ccc21` [Example 13, 3-((1S)-5-(2-(1H-tetrazol-5-yl)phenyl)-2,3-dihydro-1H-inden-1-yl)-2-ethyl-5-(2-methoxyethyl)-7-methyl-3H-imidazo[4,5-b]pyridine], in assay [1], the Duration of activity is on record as greater than 20 h and the “Maximal fall … of 10 mg/kg p.o. (mmHg)” value is −46 mmHg. Further, in assay [2], the Emax was determined as 26% and the pEC50 was 6.36. For the same molecule, in the assay on ZDF male rat, the “Blood Glucose … of 10 mg/kg p.o. for 28 days” value is 120 mg/dL and the “Difference from Vehicle Control” value was -469 mg/dL. In addition, the pIC50 in assay [3] was 8.60.
Regarding `CCc1nc2c(C)cc(CCO)nc2n1[C@H]1CCc2cc(-c3ccccc3-c3nnn[nH]3)ccc21` [Example 13a, 2-(3-((1S)-5-(2-(1H-tetrazol-5-yl)phenyl)-2,3-dihydro-1H-inden-1-yl)-2-ethyl-7-methyl-3H-imidazo[4,5-b]pyridin-5-yl)ethanol], in assay [1], the Duration of activity is reported as greater than 20 h and the “Maximal fall … of 10 mg/kg p.o. (mmHg)” value is recorded as −28 mmHg. Also, in assay [2], the Emax worked out at 24% and the pEC50 is 6.38. For the same molecule, in the assay on ZDF male rat, the “Blood Glucose … of 10 mg/kg p.o. for 28 days” value turned out to be 112 mg/dL and the “Difference from Vehicle Control” value is -477 mg/dL. Moreover, the pIC50 in assay [3] was 8.39.
`CCc1nc2c(C)cc(CC(C)(C)O)nc2n1[C@H]1CCc2cc(-c3ccccc3-c3nnn[nH]3)ccc21` [Example 16, 1-(3-((1S)-5-(2-(1H-tetrazol-5-yl)phenyl)-2,3-dihydro-1H-inden-1-yl)-2-ethyl-7-methyl-3H-imidazo[4,5-b]pyridin-5-yl)-2-methylpropan-2-ol]: in assay [1], the Duration of activity was greater than 20 h and the “Maximal fall … of 10 mg/kg p.o. (mmHg)” value is −37 mmHg. Further, in assay [2], the Emax was 20% and the pEC50 was 6.60. In the assay with ZDF male rat, the “Blood Glucose … of 10 mg/kg p.o. for 28 days” value is 114 mg/dL and the “Difference from Vehicle Control” value is -475 mg/dL. In addition, in assay [3], the pIC50 is 8.54.
Regarding `CCc1nc2c(C)cc(C(C)(O)C(C)C)nc2n1[C@H]1CCc2cc(-c3ccccc3-c3nnn[nH]3)ccc21` (stereo partly drawn) [Example 61, 2-(3-((1S)-5-(2-(1H-tetrazol-5-yl)phenyl)-2,3-dihydro-1H-inden-1-yl)-2-ethyl-7-methyl-3H-imidazo[4,5-b]pyridin-5-yl)-3-methylbutan-2-ol], in assay [2], the Emax stood at 21% and the pEC50 is 6.39. The pIC50 in assay [3] is 8.30.
Turning to `CCc1nnc(Cc2cc(C)c3nc(CC)n([C@H]4CCc5cc(-c6ccccc6-c6nnn[nH]6)ccc54)c3n2)o1` [Example 62, 3-((1S)-5-(2-(1H-tetrazol-5-yl)phenyl)-2,3-dihydro-1H-inden-1-yl)-2-ethyl-5-((5-ethyl-1,3,4-oxadiazol-2-yl)methyl)-7-methyl-3H-imidazo[4,5-b]pyridine], in assay [2], the Emax came to 50% and the pEC50 was 7.15. The pIC50 in assay [3] was 8.85.
`CCc1nc2c(C)cc(CC3CCCCC3=O)nc2n1[C@H]1CCc2cc(-c3ccccc3-c3nnn[nH]3)ccc21` (stereo partly drawn) [Example 63, 2-((3-((1S)-5-(2-(1H-tetrazol-5-yl)phenyl)-2,3-dihydro-1H-inden-1-yl)-2-ethyl-7-methyl-3H-imidazo[4,5-b]pyridin-5-yl)methyl)cyclohexanone]: in assay [2], the Emax was 27% and the pEC50 is 6.53. Moreover, the pIC50 in assay [3] is 8.62.
On to `CCc1nc2c(C)cc(Cn3nccn3)nc2n1[C@H]1CCc2cc(-c3ccccc3-c3nnn[nH]3)ccc21` [Example 66, 3-((1S)-5-(2-(1H-tetrazol-5-yl)phenyl)-2,3-dihydro-1H-inden-1-yl)-5-((2H-1,2,3-triazol-2-yl)methyl)-2-ethyl-7-methyl-3H-imidazo[4,5-b]pyridine], for which, in assay [2], the Emax worked out at 22% and the pEC50 was 6.36. The pIC50 in assay [3] is 8.22.
As for `CCc1nc2c(C)cc(Cn3nc(C)cc3C)nc2n1[C@H]1CCc2cc(-c3ccccc3-c3nnn[nH]3)ccc21` [Example 67, 3-((1S)-5-(2-(1H-tetrazol-5-yl)phenyl)-2,3-dihydro-1H-inden-1-yl)-5-((3,5-dimethyl-1H-pyrazol-1-yl)methyl)-2-ethyl-7-methyl-3H-imidazo[4,5-b]pyridine], in assay [2], the Emax stood at 23% and the pEC50 is 6.96. The pIC50 in assay [3] was 8.29.
`CCc1nc2c(C)cc(CCC(C)(O)C(C)(C)C)nc2n1[C@H]1CCc2cc(-c3ccccc3-c3nnn[nH]3)ccc21` (stereo partly drawn) [Example 68, 1-(3-((1S)-5-(2-(1H-tetrazol-5-yl)phenyl)-2,3-dihydro-1H-inden-1-yl)-2-ethyl-7-methyl-3H-imidazo[4,5-b]pyridin-5-yl)-3,4,4-trimethylpentan-3-ol]: in assay [2], the Emax is 34% and the pEC50 is 7.35. Further, the pIC50 in assay [3] is 8.19.
`CCc1nc2c(C)cc(CCC(C)(O)CC(C)C)nc2n1[C@H]1CCc2cc(-c3ccccc3-c3nnn[nH]3)ccc21` (stereo partly drawn) [Example 69, 1-(3-((1S)-5-(2-(1H-tetrazol-5-yl)phenyl)-2,3-dihydro-1H-inden-1-yl)-2-ethyl-7-methyl-3H-imidazo[4,5-b]pyridin-5-yl)-3,5-dimethylhexan-3-ol]: in assay [2], the Emax worked out at 36% and the pEC50 was 7.52. Moreover, the pIC50 in assay [3] was 8.40.
